Results: US20240150377A1, “MODULATORS OF CYSTIC FIBROSIS TRANSMEMBRANE CONDUCTANCE REGULATOR” (VERTEX PHARMACEUTICALS INCORPORATED, priority 2020, published 2024)
Where “and” joins values, the source holds several entries; their conditions need not be identical. Equal values may be shown once. Read-outs that look alike come from different tables or passages of the source. Values belong to the molecule of their own block, whether it stands above or below them.

Experiments:
[1] = amide bond, 13-membered ring
[2] = molecular target: T1, F508del (Homo sapiens, UniProt P13569, DEL508-508); assay: 3T3 assay: membrane potential optical assay for F508del correction; assay type: cell-based; details: F508del NIH 3T3 cells; for Emax: NIH3T3, compared to lumacaftor in combination with acutely added 300 nM Ivacaftor, read-out: 3T3 Max Activity; for EC50: 18-24 hours at 37° C., forskolin, acutely added 300 nM Ivacaftor
T1 construct: expressed in transfected cells
Excerpt: 1. Membrane Potential Optical Methods for Assaying F508del Modulation Properties of Compounds
The assay utilizes fluorescent voltage sensing dyes to measure changes in membrane potential using a fluorescent plate reader (e.g., FLIPR III, Molecular Devices, Inc.) as a readout for increase in functional F508del in NIH 3T3 cells. The driving force for the response is the creation of a chloride ion gradient in conjunction with channel activation by a single liquid addition step after the cells have previously been treated with compounds and subsequently loaded with a voltage sensing dye.
2. Identification of Corrector Compounds
To identify correctors of F508del, a single-addition HTS assay format was developed. This HTS assay utilizes fluorescent voltage sensing dyes to measure changes in membrane potential on the FLIPR III as a measurement for increase in gating (conductance) of F508del in F508del NIH 3T3 cells. The F508del NIH 3T3 cell cultures were incubated with the corrector compounds at a range of concentrations for 18-24 hours at 37° C., and subsequently loaded with a redistribution dye. The driving force for the response is a Cl^− ion gradient in conjunction with channel activation with forskolin in a single liquid addition step using a fluorescent plate reader such as FLIPR III.
Bath Solution #1: (in mM) NaCl 160, KCl 4.5, CaCl2) 2, MgCl2 1, HEPES 10, pH 7.4 with NaOH.
Chloride-free bath solution: Chloride salts in Bath Solution #1 (above) are substituted with gluconate salts.
NIH3T3 mouse fibroblasts stably expressing F508del are used for optical measurements of membrane potential. The cells are maintained at 37° C. in 5% CO2 and 90% humidity in Dulbecco's modified Eagle's medium supplemented with 2 mM glutamine, 10% fetal bovine serum, 1× NEAA, b-ME, 1×pen/strep, and 25 mM HEPES in 175 cm^2 culture flasks. For all optical assays, the cells were seeded at ˜20,000/well in 384-well Matrigel-coated plates. For the correction assays, the cells are cultured at 37° C. with and without compounds for 16-24 hours.

[3] = molecular target: T2, CFTR (Homo sapiens, UniProt P13569); assay: Membrane potential dye, Enteroid Assay A; assay type: cell-based; details: for Ent. A Max Activity: chloride transport as % of triple combination control (Enteroid Assay A); for EC50: human enteroid cells, 18-24 hours, acute 10 μM forskolin and 300 nM ivacaftor, read-out: Ent. A EC50
How it was run: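 % Activity: chloride transport relative to a 3 μM/3 μM corrector pair plus 300 nM acute potentiator control. Primary human enteroid cells, 18-24 h compound exposure at 37 °C; membrane potential dye (methyl oxonol) fluorescence over 15 min after forskolin (10 μM)/IBMX (100 μM)/Compound III (300 nM) stimulation in chloride-free buffer.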

[4] = molecular target: T2, CFTR; assay: Membrane potential dye, Enteroid Assay B; assay type: cell-based; details: Table 6
How it was run: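 Fluorescence read over 15 min after chloride-free stimulation (10 μM forskolin, 100 μM IBMX, 300 nM Compound III) gave chloride transport, reported as % activity versus a triple-corrector/potentiator control. Beforehand, human enteroid cells had 18-24 h compound exposure at 37° C and 25 min methyl oxonol dye loading at room temperature.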

T2 sequence (P13569 with tags, fused parts or gaps DEL508-508): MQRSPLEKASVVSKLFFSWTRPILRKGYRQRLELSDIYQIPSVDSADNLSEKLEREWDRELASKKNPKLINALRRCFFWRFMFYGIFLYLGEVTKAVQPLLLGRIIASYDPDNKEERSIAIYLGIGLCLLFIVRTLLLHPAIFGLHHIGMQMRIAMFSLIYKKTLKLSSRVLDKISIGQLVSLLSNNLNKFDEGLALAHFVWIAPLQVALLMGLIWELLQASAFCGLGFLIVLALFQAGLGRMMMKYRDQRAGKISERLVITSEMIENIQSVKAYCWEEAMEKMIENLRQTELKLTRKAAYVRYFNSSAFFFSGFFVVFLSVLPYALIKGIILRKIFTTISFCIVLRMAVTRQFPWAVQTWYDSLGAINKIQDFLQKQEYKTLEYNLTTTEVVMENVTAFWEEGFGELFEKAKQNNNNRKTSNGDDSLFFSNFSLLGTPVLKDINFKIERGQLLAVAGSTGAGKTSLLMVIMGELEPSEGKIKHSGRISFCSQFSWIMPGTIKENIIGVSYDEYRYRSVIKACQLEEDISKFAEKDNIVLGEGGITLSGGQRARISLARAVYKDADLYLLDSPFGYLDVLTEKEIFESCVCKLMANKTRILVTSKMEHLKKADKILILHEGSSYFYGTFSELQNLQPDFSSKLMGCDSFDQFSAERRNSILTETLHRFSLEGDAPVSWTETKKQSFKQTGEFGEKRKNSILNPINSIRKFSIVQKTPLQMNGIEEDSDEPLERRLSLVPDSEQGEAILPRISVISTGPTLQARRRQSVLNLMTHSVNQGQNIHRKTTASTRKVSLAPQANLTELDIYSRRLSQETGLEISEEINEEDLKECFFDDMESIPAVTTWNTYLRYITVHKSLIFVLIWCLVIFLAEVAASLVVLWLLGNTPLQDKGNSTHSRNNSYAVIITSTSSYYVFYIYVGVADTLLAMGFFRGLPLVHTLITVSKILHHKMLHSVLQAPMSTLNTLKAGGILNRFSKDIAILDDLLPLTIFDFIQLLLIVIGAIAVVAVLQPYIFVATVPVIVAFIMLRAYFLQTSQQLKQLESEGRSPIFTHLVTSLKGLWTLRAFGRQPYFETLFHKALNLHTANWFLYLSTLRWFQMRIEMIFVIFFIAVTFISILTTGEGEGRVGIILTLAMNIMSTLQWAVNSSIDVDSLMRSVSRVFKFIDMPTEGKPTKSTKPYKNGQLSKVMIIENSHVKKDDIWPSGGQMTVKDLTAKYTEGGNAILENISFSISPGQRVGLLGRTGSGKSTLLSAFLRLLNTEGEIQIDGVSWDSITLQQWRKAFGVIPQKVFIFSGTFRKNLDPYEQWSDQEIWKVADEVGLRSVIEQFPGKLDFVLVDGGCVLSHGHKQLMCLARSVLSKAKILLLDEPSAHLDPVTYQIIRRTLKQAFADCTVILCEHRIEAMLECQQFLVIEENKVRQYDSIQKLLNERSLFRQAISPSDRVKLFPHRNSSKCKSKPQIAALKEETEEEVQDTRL
T1 sequence (P13569 with tags, fused parts or gaps DEL508-508): as above

SMILES: CCOC(=O)CCCCN1C(=O)c2cccc(c2)S(=O)(=O)Nc2nc(cc(-c3c(C)cccc3C)n2)OC[C@H]1CC(C)(C)C
ring closure, yield after HPLC ([1]; from CCOC(=O)CCCCN[C@@H](COc1cc(-c2c(C)cccc2C)nc(NS(=O)(=O)c2cccc(C(=O)O)c2)n1)CC(C)(C)C, HATU/DIEA, DMF, 62.0 mM, 25.0 °C, 1.0 h): 66%

SMILES: CCOC(=O)COc1ccc(CN2C(=O)c3cccc(c3)S(=O)(=O)Nc3nc(cc(-c4c(C)cccc4C)n3)OC[C@H]2CC(C)(C)C)nc1
ring closure, yield after HPLC ([1]; from CCOC(=O)COc1ccc(CN[C@@H](COc2cc(-c3c(C)cccc3C)nc(NS(=O)(=O)c3cccc(C(=O)O)c3)n2)CC(C)(C)C)nc1, HATU/DIEA, DMF, 29.1 mM, 25.0 °C, 4.0 h): 42%

SMILES: COC(=O)C12CC(CN3C(=O)c4cccc(c4)S(=O)(=O)Nc4nc(cc(-c5c(C)cccc5C)n4)OC[C@H]3CC(C)(C)C)(C1)C2
ring closure, yield after HPLC ([1]; from COC(=O)C12CC(CN[C@@H](COc3cc(-c4c(C)cccc4C)nc(NS(=O)(=O)c4cccc(C(=O)O)c4)n3)CC(C)(C)C)(C1)C2, CDMT/NMM, DMF, 29.1 mM, 25.0 °C, 60.0 h): 27%

SMILES: Cc1cccc(C)c1-c1cc2nc(n1)NS(=O)(=O)c1cccc(c1)C(=O)N(C)CC(c1ccc(CC3(C(F)(F)F)CC3)cn1)O2 (stereo not shown)
ring closure, yield after HPLC ([1]; from CNCC(Oc1cc(-c2c(C)cccc2C)nc(NS(=O)(=O)c2cccc(C(=O)O)c2)n1)c1ccc(CC2(C(F)(F)F)CC2)cn1, HATU (excess NaOtBu from SNAr), THF/DMF, 49.6 mM, 25.0 °C, 3.0 h, 2 steps): 35%

SMILES: Cc1cccc(C)c1-c1cc2nc(n1)NS(=O)(=O)c1cccc(c1)C(=O)N(CC1CCN(C(=O)OC(C)(C)C)CC1)[C@H](CC(C)(C)C)CO2
ring closure, yield after HPLC ([1]; from Cc1cccc(C)c1-c1cc(OC[C@@H](CC(C)(C)C)NCC2CCN(C(=O)OC(C)(C)C)CC2)nc(NS(=O)(=O)c2cccc(C(=O)O)c2)n1, CDMT/NMM, DMF, 25.0 °C, 3.5 h, 2 steps): 25%

SMILES: Cc1cccc(C)c1-c1cc2nc(n1)NS(=O)(=O)c1cccc(c1)C(=O)N(CCc1ccc(Br)cn1)[C@H](CC(C)(C)C)CO2
ring closure, yield after HPLC ([1]; from Cc1cccc(C)c1-c1cc(OC[C@@H](CC(C)(C)C)NCCc2ccc(Br)cn2)nc(NS(=O)(=O)c2cccc(C(=O)O)c2)n1, CDMT/NMM, DMF, 25.0 °C, 3.0 h, 2 steps): 15%

SMILES: Cc1cccc(C)c1-c1cc2nc(n1)NS(=O)(=O)c1cccc(c1)C(=O)N(CCc1cccc(F)n1)[C@H](CC(C)(C)C)CO2
ring closure, yield after HPLC ([1]; from Cc1cccc(C)c1-c1cc(OC[C@@H](CC(C)(C)C)NCCc2cccc(F)n2)nc(NS(=O)(=O)c2cccc(C(=O)O)c2)n1, CDMT/NMM, DMF, 25.0 °C, 3.0 h, 2 steps): 6%

SMILES: Cc1cccc(C)c1-c1cc2nc(n1)NS(=O)(=O)c1cccc(c1)C(=O)N(Cc1ccc(F)nc1)[C@H](CC(C)(C)C)CO2
ring closure, yield after HPLC ([1]; from Cc1cccc(C)c1-c1cc(OC[C@@H](CC(C)(C)C)NCc2ccc(F)nc2)nc(NS(=O)(=O)c2cccc(C(=O)O)c2)n1, CDMT/NMM, DMF, 25.0 °C, 5.0 h, 2 steps): 34%

SMILES: Cc1cccc(C)c1-c1cc2nc(n1)NS(=O)(=O)c1cccc(c1)C(=O)N(Cc1ccc(I)cc1)[C@H](CC(C)(C)C)CO2
ring closure, yield after HPLC ([1]; from Cc1cccc(C)c1-c1cc(OC[C@@H](CC(C)(C)C)NCc2ccc(I)cc2)nc(NS(=O)(=O)c2cccc(C(=O)O)c2)n1, HATU/DIEA, DMF, 26.1 mM, 15.0 h): 32%

SMILES: Cc1cccc(C)c1-c1cc2nc(n1)NS(=O)(=O)c1cccc(c1)C(=O)N(Cc1cccc(F)n1)[C@H](CC(C)(C)C)CO2
ring closure, yield after HPLC ([1]; from 3-[[4-(2,6-dimethylphenyl)-6-[(2R)-2-[(6-fluoro-2-pyridyl)methylamino]-4,4-dimethyl-pentoxy]pyrimidin-2-yl]sulfamoyl]benzoic acid (Dihydrochloride salt), CDMT/NMM, DMF, 25.2 mM): 66%

SMILES: Cc1cccc(C)c1-c1cc2nc(n1)NS(=O)(=O)c1cccc(c1)C(=O)N(Cc1cncc(N3CCC[C@H]3C)n1)C(C1CC(C)(C)C1)CO2 (stereo partly shown)
ring closure, yield after HPLC ([1]; from Cc1cccc(C)c1-c1cc(OCC(NCc2cncc(N3CCC[C@H]3C)n2)C2CC(C)(C)C2)nc(NS(=O)(=O)c2cccc(C(=O)O)c2)n1, CDMT/NMM, DMF, 12.7 mM, 16.5 h): 18% and 17%

SMILES: Cc1cccc(C)c1-c1cc2nc(n1)NS(=O)(=O)c1cccc(c1)C(=O)N(C)[C@H](CC1CCCCC1)O2 [Compound 1193]
Emax ([2]; Table 6): > 60%
EC50 ([2]; Table 6): < 1000 nM
Ent. A Max Activity ([3]; Table 6): +++ (+++ is >60%)
EC50 ([3]; Table 6): < 1000 nM

Continued, values first:

Emax ([2]; Table 6): > 60%
EC50 ([2]; Table 6): < 1000 nM
Ent. A Max Activity ([3]; Table 6): +++ (+++ is >60%)
EC50 ([3]; Table 6): < 1000 nM
SMILES: Cc1cccc(C)c1-c1cc2nc(n1)NS(=O)(=O)c1cccc(c1)C(=O)N(CCC(C)C)[C@H](CCC1(C(F)(F)F)CC1)CO2 [Compound 850]

Emax ([2]; Table 6): > 60%
EC50 ([2]; Table 6): < 1000 nM
Ent. A Max Activity ([3]; Table 6): +++ (+++ is >60%)
EC50 ([3]; Table 6): < 1000 nM
SMILES: Cc1cccc(C)c1-c1cc2nc(n1)NS(=O)(=O)c1cccc(c1)C(=O)N(CC(C)C)[C@H](CC(C)C)CO2 [Compound 865]

Emax ([2]; Table 7): > 60%
EC50 ([2]; Table 7): < 1000 nM
Ent. A Max Activity ([3]; Table 7): +++ (+++ is >60%)
EC50 ([3]; Table 7): < 1000 nM
SMILES: Cc1cccc(C)c1-c1cc2nc(n1)NS(=O)(=O)c1cccc(c1)C(=O)N(Cc1ccc(N3CCCCC3)nc1)[C@H](CC(C)C)CO2 [Compound 974]

Emax ([2]; Table 6): > 60%
EC50 ([2]; Table 6): < 1000 nM
Ent. A Max Activity ([3]; Table 6): +++ (+++ is >60%)
EC50 ([3]; Table 6): < 1000 nM
Ent. B Max Activity ([4]; chloride transport as % of triple combination control (Enteroid Assay B)): +++ (+++ is >60%)
EC50 ([4]; human enteroid cells, 18-24 hours, acute 10 μM forskolin and 300 nM ivacaftor, read-out: Ent. B EC50): < 1000 nM
SMILES: Cc1cccc(C)c1-c1cc2nc(n1)NS(=O)(=O)c1cccc(c1)C(=O)N(Cc1ccc(N3CCC(C)CC3)nc1)[C@H](CC(C)C)CO2 [Compound 975]

Emax ([2]; Table 7): > 60%
EC50 ([2]; Table 7): < 1000 nM
Ent. A Max Activity ([3]; Table 7): ++ (++ is 30-60%)
EC50 ([3]; Table 7): < 1000 nM
SMILES: Cc1cccc(C)c1-c1cc2nc(n1)NS(=O)(=O)c1cccc(c1)CN(CCC(F)(F)F)[C@H](CC(C)C)CO2 [Compound 1021]

Emax ([2]; Table 7): > 60%
EC50 ([2]; Table 7): < 1000 nM
Ent. A Max Activity ([3]; Table 7): ++ (++ is 30-60%)
EC50 ([3]; Table 7): < 1000 nM
SMILES: Cc1cccc(C)c1-c1cc2nc(n1)NS(=O)(=O)c1cccc(c1)CN(CCCC1(C(F)(F)F)CC1)[C@H](CC(C)C)CO2 [Compound 1023]

Emax ([2]; Table 7): > 60%
EC50 ([2]; Table 7): < 1000 nM
Ent. A Max Activity ([3]; Table 7): ++ (++ is 30-60%)
EC50 ([3]; Table 7): < 1000 nM
SMILES: Cc1cccc(C)c1-c1cc2nc(n1)NS(=O)(=O)c1cccc(c1)CN(CCC1(C(F)(F)F)CC1)[C@H](CC(C)C)CO2 [Compound 1024]

Emax ([2]; Table 7): > 60%
EC50 ([2]; Table 7): < 1000 nM
Ent. A Max Activity ([3]; Table 7): +++ (+++ is >60%)
EC50 ([3]; Table 7): < 1000 nM
SMILES: Cc1cccc(C)c1-c1cc2nc(n1)NS(=O)(=O)c1cccc(c1)CN(Cc1cnn(-c3ccccc3)c1C)[C@H](CC(C)C)CO2 [Compound 1026]

Emax ([2]; Table 7): > 60%
EC50 ([2]; Table 7): < 1000 nM
Ent. A Max Activity ([3]; Table 7): ++ (++ is 30-60%)
EC50 ([3]; Table 7): < 1000 nM
SMILES: Cc1cccc(C)c1-c1cc2nc(n1)NS(=O)(=O)c1cccc(c1)CN(Cc1cccc3c1OC(F)(F)O3)[C@H](CC(C)C)CO2 [Compound 1029]

Emax ([2]; Table 6): > 60%
EC50 ([2]; Table 6): < 1000 nM
Ent. A Max Activity ([3]; Table 6): +++ (+++ is >60%)
EC50 ([3]; Table 6): < 1000 nM
SMILES: Cc1cccc(C)c1-c1cc2nc(n1)NS(=O)(=O)c1cccc(c1)CN(CCC(C)(C)C)[C@H](CC(C)C)CO2 [Compound 1043]

Emax ([2]; Table 7): > 60%
EC50 ([2]; Table 7): < 1000 nM
Ent. A Max Activity ([3]; Table 7): +++ (+++ is >60%)
EC50 ([3]; Table 7): < 1000 nM
SMILES: CC(=O)N1CCC(CCN2C(=O)c3cccc(c3)S(=O)(=O)Nc3nc(cc(-c4c(C)cccc4C)n3)OC[C@H]2CC(C)C)CC1 [Compound 1107]
